Measurements as given in US12479794B2, “Acetophenone oxime compound and application thereof” (Medshine Discovery Inc., priority 2020, dated 2025).
pEC50: −log10 of the molar value. Structures can show the parent of a compound that is named as a salt. Where two headings read alike, the source gives them in different places. Each block holds one molecule with its values, some of them ahead of it.

Legend:
[1] = target: T1, S1P1 (Homo sapiens, UniProt P21453); test: In vitro agonistic activity on S1P1, U2OS-EDG1 cells, LiveBLAzer FRET B/G; format: cell-based; settings: for Emax: % Effect
T1 construct: host or cells: U2OS
Description: Assay Example 1: In Vitro Evaluation of the Agonistic Activity of the Compounds of the Present Disclosure on S1P1
Object of the assay: To detect the agonistic activity of compounds on S1P1
• 1. Cells U2OS-EDG1 (Batch No.: Invitrogen-K1520) were taken out of a liquid nitrogen tank and placed in a 37° C. water bath to thaw quickly; • 2. The cell suspension was aspirated into a 15 ml centrifuge tube, resuspended in 5 ml of preheated medium, and centrifuged at 1000 rpm for 5 min; • 3. The supernatant was discarded. The cells were resuspended in 10 ml of medium, transferred into a T75 culture flask, and cultivated in an incubator with 5% CO2 at 37° C. II. Agonist Assay • 1. The compounds were diluted to working concentrations, and serially diluted 3-fold by Echo 555 (manufacturer: Labcyte) to obtain 10 concentrations; 200 nL of each concentration of the compound was transferred to a cell plate and centrifuged at 1000 rpm for 15 seconds; • 2. Culture medium was aspirated from the culture flask; 4 mL of Dulbecco's phosphate buffer (DPBS, supplier: Coring, item No.: 21-031-CVR, batch No.: 03318006) was added, and the residual serum was washed away; 2 mL of trypsin was added; The mixture was incubated in an incubator at 37° C. for 2 min, and the cells were digested; 10 mL of seeding medium was added to resuspend the cells; 0.6 mL of cell suspension was taken out and counted; • 3. The density of cells was adjusted to 1.88E+05 cells/mL using seeding medium, with 40 μL per well (7500\well); 40 μL of FreeStyle™ Expression medium was added around the cell plate; The plate was let stand at room temperature for 15 min and incubated at 37° C. with 5% CO2 for 20 hours. III. Signal Detection • 1. LiveBLAzer™-FRET B/G Substrate (CCF4-AM) assay reagents were formulated according to the instructions; • 2. 8 μL of 6×Substrate Mixture was added to each well of the cell plate; The plate was centrifuged at 1000 rpm for 15 seconds, covered with a film, and incubated at 23° C. for 2 hours; The cell plate was subjected to Envision […] detection. IV. Data Analysis • 1. The raw data were converted into % Effect by using an equation, and the EC50 value can be obtained by curve fitting with four parameters [“log(agonist) vs. response—Variable slope” model in GraphPad Prism]; • 2. Calculation formula: Ratio=(460 nm−blank)/(535 nm−blank) % Effect=(SampleRatio−Ave LCRatio)/(Ave HCRatio−Ave LCRatio)×100%

[2] = Pharmacokinetic evaluation in SD rats (iv and oral); format: in vivo, Sprague Dawley rats; settings: male, Sprague-Dawley, rat, plasma; for half-life: read-out: Half life T1/2 (PO) (converted); for clearance: read-out: Clearance rate CL; for Vd: read-out: Distribution in tissue Vdss; for bioavailability: read-out: Bioavailability F; for Cmax: read-out: Peak concentration Cmax
Description: Assay Example 2: Pharmacokinetic Evaluation of Compounds in Rats
Object of the assay: To evaluate the in vivo pharmacokinetics of the compounds in SD rats
Sprague Dawley rats (male, 200-300 g, 7-9 weeks old, Shanghai SLAC)
The pharmacokinetic characteristics of the compounds in rodents after intravenous injection and oral administration were assayed according to the standard protocol. In the assay, the candidate compounds were formulated into clear solutions and administered to rats by single intravenous injection and oral administration. The vehicle for intravenous injection and oral administration was DMSO and 10% hydroxypropyl β-cyclodextrin in water (DMSO:10% hydroxypropyl β-cyclodextrin in water=5:95). Whole blood samples were collected within 48 hours, and centrifuged at 3000 g for 15 minutes. The supernatant was separated to give plasma samples. 4 times the volume of acetonitrile solution containing internal standard was added to precipitate protein. The resulting mixture was centrifuged and the supernatant was taken out. An equal volume of water was added and the mixture was centrifuged. The supernatant was taken out, and injected as a sample to quantitatively analyze the plasma drug concentration by LC-MS/MS analysis method. The pharmacokinetic parameters, such as peak concentration, time to peak, clearance rate, half-life, area under drug-time curve, bioavailability, etc., were calculated.

[3] = intravenous, iv 1.0, po 2.0 mg/kg
[4] = po, 2 mg/kg, iv 1.0, po 2.0 mg/kg, PO, read-out: Area under drug-time curve AUC0-last PO

T1 sequence (P21453 whole entry): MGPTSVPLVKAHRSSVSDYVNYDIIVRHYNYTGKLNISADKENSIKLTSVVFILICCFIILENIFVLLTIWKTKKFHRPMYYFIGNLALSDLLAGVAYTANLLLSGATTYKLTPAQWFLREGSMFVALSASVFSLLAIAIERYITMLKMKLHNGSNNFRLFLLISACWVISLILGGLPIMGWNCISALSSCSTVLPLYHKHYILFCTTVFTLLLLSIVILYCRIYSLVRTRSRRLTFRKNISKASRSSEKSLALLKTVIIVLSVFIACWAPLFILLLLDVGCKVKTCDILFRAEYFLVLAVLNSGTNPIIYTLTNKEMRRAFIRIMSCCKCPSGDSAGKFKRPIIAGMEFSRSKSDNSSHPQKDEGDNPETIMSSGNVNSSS

pEC50 [1]: 8.42
Emax [1]: 101%
half-life ([2]; intravenous, 1 mg/kg, iv 1.0 mg/kg only (head prints PO)): 450 min
AUC(0-t) ([2]; iv, 1 mg/kg, iv 1.0 mg/kg, read-out: Area under drug-time curve AUC0-last iv): 6.84 µM·h
clearance ([2]; iv, 1 mg/kg, iv 1.0 mg/kg): 4.5 mL/min/kg
Vd ([2]; iv, 1 mg/kg, iv 1.0 mg/kg): 2.78 L/kg
Structure (SMILES): CC(=NOCc1ccc(OC(C)C)c(C(F)(F)F)c1)c1ccc2c(c1)CCC2N1CC(C(=O)O)C1 (single isomer, unassigned) [Compound 32A]

Structure (SMILES): C/C(=N\OCc1ccc(C2CCCCC2)c(C(F)(F)F)c1)c1ccc2c(c1)CC(NCCC(=O)O)C2 (stereo not drawn) [Compound 1 trifluoroacetate]
pEC50 [1]: 7.38
Emax [1]: 88.4%

Structure (SMILES): C/C(=N\OCc1ccc(C2CCCCC2)c(C(F)(F)F)c1)c1ccc2c(c1)CCC2NCC1(C(=O)O)CC1 (stereo not drawn) [Compound 3 trifluoroacetate]
pEC50 [1]: 8.24
Emax [1]: 95%
AUC(0-t) ([2]; iv 1.4, po 2.7 mg/kg, PO, read-out: Area under drug-time curve AUC0-last PO): 7.05 µM·h
half-life ([2]; iv 1.4, po 2.7 mg/kg, PO): 678 min
bioavailability ([2]; iv 1.4, po 2.7 mg/kg): 59.3%
clearance ([2]; iv 1.4, po 2.7 mg/kg): 6.87 mL/min/kg
Vd ([2]; iv 1.4, po 2.7 mg/kg): 5.47 L/kg
Cmax ([2]; iv 1.4, po 2.7 mg/kg): 393 nM

pEC50 [1]: 7.24
Emax [1]: 84.2%
Structure (SMILES): C/C(=N\OCc1ccc(OC(C)C)c(C(F)(F)F)c1)c1ccc2c(c1)CCC2NCC(=O)O (stereo not drawn) [Compound 10 hydrochloride]

Structure (SMILES): C/C(=N\OCc1ccc(C2CCCCC2)c(C(F)(F)F)c1)c1ccc2c(c1)CCC2N(C)CCC(=O)O (stereo not drawn) [Compound 11 trifluoroacetate]
pEC50 [1]: 8.30
Emax [1]: 97.4%
AUC(0-t) ([2]; iv 1.2, po 2.4 mg/kg, PO, read-out: Area under drug-time curve AUC0-last PO): 11.3 µM·h
half-life ([2]; iv 1.2, po 2.4 mg/kg, PO): 545 min
bioavailability ([2]; iv 1.2, po 2.4 mg/kg): 64%
clearance ([2]; iv 1.2, po 2.4 mg/kg): 4.24 mL/min/kg
Vd ([2]; iv 1.2, po 2.4 mg/kg): 3.32 L/kg
Cmax ([2]; iv 1.2, po 2.4 mg/kg): 605 nM

pEC50 [1]: 7.85
Emax [1]: 102%
Structure (SMILES): C/C(=N\OCc1ccc(OCC(C)C)c(C(F)(F)F)c1)c1ccc2c(c1)CCC2NCC1(C(=O)O)CC1 (stereo not drawn) [Compound 13 hydrochloride]

pEC50 [1]: 7.56
Emax [1]: 113%
Structure (SMILES): C/C(=N\OCc1ccc(OCC2CC2)c(C(F)(F)F)c1)c1ccc2c(c1)CCC2NCC1(C(=O)O)CC1 (stereo not drawn) [Compound 14 hydrochloride]

pEC50 [1]: 8.05
Emax [1]: 51%
Structure (SMILES): C/C(=N\OCc1ccc(C2CCCCC2)c(C(F)(F)F)c1)c1ccc2c(c1)CCC2NCCC(=O)O (stereo not drawn) [Compound 20]

pEC50 [1]: 7.91
Emax [1]: 106%
clearance [2, 3]: 5.43 mL/min/kg
Vd [2, 3]: 2.05 L/kg
bioavailability ([2]; iv 1.0, po 2.0 mg/kg): 53.2%
Cmax ([2]; iv 1.0, po 2.0 mg/kg): 486 nM
AUC(0-t) [2, 4]: 6.13 µM·h
Structure (SMILES): C/C(=N\OCc1ccc(OCC2CC2)c(C(F)(F)F)c1)c1ccc2c(c1)CCC2N(C)CCC(=O)O (stereo not drawn) [Compound 21]

pEC50 [1]: 7.72
Emax [1]: 107%
Structure (SMILES): C/C(=N\OCc1ccc(OCC(C)C)c(C(F)(F)F)c1)c1ccc2c(c1)CCC2N(C)CCC(=O)O (stereo not drawn) [Compound 22 formate]

pEC50 [1]: 7.64
Emax [1]: 121%
Structure (SMILES): C/C(=N\OCc1ccc(OC(F)F)c(C(F)(F)F)c1)c1ccc2c(c1)CCC2N1CC(C(=O)O)C1 (stereo not drawn) [Compound 28]

pEC50 [1]: 8.06
Emax [1]: 103%
clearance [2, 3]: 3.68 mL/min/kg
Vd [2, 3]: 2.24 L/kg
bioavailability ([2]; iv 1.0, po 2.0 mg/kg): 59.4%
Cmax ([2]; iv 1.0, po 2.0 mg/kg): 615 nM
AUC(0-t) [2, 4]: 9.52 µM·h
Structure (SMILES): C/C(=N\OCc1ccc(OCC(C)C)c(C(F)(F)F)c1)c1ccc2c(c1)CCC2N1CC(C(=O)O)C1 (stereo not drawn) [Compound 29]

pEC50 [1]: 7.78
Emax [1]: 63.4%
clearance [2, 3]: 3.93 mL/min/kg
Vd [2, 3]: 4.19 L/kg
bioavailability ([2]; iv 1.0, po 2.0 mg/kg): 62.1%
Cmax ([2]; iv 1.0, po 2.0 mg/kg): 478 nM
AUC(0-t) [2, 4]: 7.54 µM·h
Structure (SMILES): C/C(=N\OCc1ccc(C2CCCCC2)c(C(F)(F)F)c1)c1ccc2c(c1)CCC2N1CC(C(=O)O)C1 (stereo not drawn) [Compound 30]

pEC50 [1]: 7.99
Emax [1]: 105%
clearance [2, 3]: 2.87 mL/min/kg
Vd [2, 3]: 0.88 L/kg
bioavailability ([2]; iv 1.0, po 2.0 mg/kg): 80.9%
Cmax ([2]; iv 1.0, po 2.0 mg/kg): 1660 nM
AUC(0-t) [2, 4]: 18.6 µM·h
half-life ([2]; po, 2 mg/kg, iv 1.0, po 2.0 mg/kg, PO): 276 min
Structure (SMILES): C/C(=N\OCc1ccc(OC2CCCC2)c(C(F)(F)F)c1)c1ccc2c(c1)CCC2N1CC(C(=O)O)C1 (stereo not drawn) [Compound 31]

pEC50 [1]: 8.53
Emax [1]: 110%
Structure (SMILES): C/C(=N\OCc1ccc(OCC2CC2)c(C(F)(F)F)c1)c1ccc2c(c1)CCC2N1CC(C(=O)O)C1 (stereo not drawn) [Compound 33]

pEC50 [1]: 8.16
Emax [1]: 101%
Structure (SMILES): C/C(=N\OCc1ccc(OC(C)C)c(C(F)(F)F)c1)c1ccc2c(c1)CCC2N(C)CCC(=O)O (stereo not drawn) [Compound 35]
